Columns and labels:
[1] = target: T1, Avi-KRAS G12D (1-169) GppNHp/RAF1 RBD-3xFLAG (52-151) (Homo sapiens, UniProt P01116, G12D); experiment: Raf1-KRAS G12D-GppNHP disruption HTRF assay (Biological Example 1); assay type: binding
T1 construct: Avi-KRAS G12D (1-169)
Summary of the method: (§1)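 Using HTRF, the loss of KRAS–effector RAF1 complex was quantified in 50 mM Tris pH 7.5 buffer with 100 mM NaCl and 0.1% BSA. The protein step and reagent step ran 1 h each at room temperature. Activity normalized with DMSO taken as 100%.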

[2] = target: T2, Avi-KRAS G12R (1-169) GppNHp/RAF1 RBD-3xFLAG (52-151) (Homo sapiens, UniProt P01116, G12R); experiment: Raf1-KRAS G12R-GppNHP disruption HTRF assay (Biological Example 1); assay type: binding
T2 construct: Avi-KRAS G12R (1-169)
Summary of the method: as §1

GP2d cells (KRAS G12D) = experiment: Cell-based pERK HTRF assay in GP2d cell (Biological Example 2); conditions: GP2d (KRAS G12D) cells
Summary of the method: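 Phospho-ERK in lysed cells was detected by HTRF using Eu cryptate and d2 antibodies, read between 4 and 24 h at room temperature. Prior to lysis, KRAS G12D GP2d cells, seeded the day before in DMEM with 10% FBS, were exposed to compounds for 60 min. Compounds were tested as 9-point half-log curves from 1 μM or 100 nM top, with 0.25% DMSO.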

[3] = target: T3, Avi-KRAS WT (2-169) GTP/RAF1 RBD-3xFLAG (51-131) (Homo sapiens, UniProt P01116); experiment: Raf1-KRAS WT-GTP disruption HTRF assay (Biological Example 3); assay type: binding; conditions: KRAS WT, GTP-loaded
T3 construct: Avi-KRAS WT (2-169)
Summary of the method: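 Each KRAS-GTP/RAF1 RBD complex at 50 nM, with 75 nM 3xFLAG-RAF1 RBD (51-131)-Avi, in 50 mM Tris pH 7.5, 100 mM NaCl, 5 mM MgCl2, 0.1% BSA, 0.01% Tween 20, 10% DMSO. Compounds titrated from 30 μM, 10-point 3x series; 1 h at room temperature with shaking. HTRF read, activity as percent of DMSO.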

[4] = KRAS G12D, GppNHp-loaded, class symbols
[5] = KRAS G12R, GppNHp-loaded, class symbols
[6] = KRAS G12D, GppNHp-loaded, Table 11
[7] = KRAS G12R, GppNHp-loaded, Table 11

T3 sequence (P01116 2-169 isoform P01116-2): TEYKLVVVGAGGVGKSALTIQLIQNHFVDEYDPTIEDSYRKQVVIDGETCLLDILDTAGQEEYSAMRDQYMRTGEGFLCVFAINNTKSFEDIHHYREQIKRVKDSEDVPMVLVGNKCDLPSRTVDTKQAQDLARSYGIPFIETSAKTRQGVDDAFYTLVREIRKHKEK
T1 sequence (P01116 1-169 isoform P01116-2 G12D): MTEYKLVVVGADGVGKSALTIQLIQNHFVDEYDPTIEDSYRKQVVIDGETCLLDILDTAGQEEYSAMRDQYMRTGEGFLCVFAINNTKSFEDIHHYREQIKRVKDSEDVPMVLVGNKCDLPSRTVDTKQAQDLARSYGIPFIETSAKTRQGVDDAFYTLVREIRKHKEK
T2 sequence (P01116 1-169 isoform P01116-2 G12R): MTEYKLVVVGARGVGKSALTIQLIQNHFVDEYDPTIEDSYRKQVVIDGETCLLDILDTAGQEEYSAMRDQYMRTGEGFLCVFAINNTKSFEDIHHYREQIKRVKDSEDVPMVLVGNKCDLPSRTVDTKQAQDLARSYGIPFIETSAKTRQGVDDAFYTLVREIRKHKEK

Compound | IC50 [1, 4] [nM] | IC50 [2, 5] [nM] | IC50 ([1]; KRAS G12D-GppNHp/RAF1 RBD HTRF) [nM] | IC50 ([2]; KRAS G12R-GppNHp/RAF1 RBD HTRF) [nM] | IC50 (GP2d cells (KRAS G12D); GP2d, pERK HTRF) [nM] | also measured
CCN(c1nc(OC[C@@]23CCCN2C[C@H](F)C3)nc2c(F)c(-c3ccc(F)c4sc(N)c(C#N)c34)c(C(F)(F)F)cc12)[C@H]1CCN(C(=O)OC)C1 [Compound 394] |  |  | < 100 | < 100 | < 100 | IC50 (GP2d cells (KRAS G12D); GP2d): < 100 nM; IC50 [3]: 100 to 1000 nM
N#Cc1cnn2c1CN(c1nc(OC[C@@]34CCCN3C[C@H](F)C4)nc3c(F)c(-c4ccc(F)c5sc(N)c(C#N)c45)c(C(F)(F)F)cc13)CC2 [Compound 392] |  |  | 100 to 1000 | 100 to 1000 | < 100 | 
CCC(=O)N1C[C@@H](N(CC)c2nc(OC[C@@]34CCCN3C[C@H](F)C4)nc3c(F)c(-c4ccc(F)c5sc(N)c(C#N)c45)c(C(F)(F)F)cc23)C[C@H]1C [Compound 442] |  |  | 100 to 1000 | 100 to 1000 | < 100 | 
N#Cc1c(N)sc2c(F)ccc(-c3c(C(F)(F)F)cc4c(N5CC6CC5CO6)nc(OC[C@@]56CCCN5C[C@H](F)C6)nc4c3F)c12 (stereo partly drawn) [Compound 147] |  |  |  |  | < 100 | IC50 [1, 6]: 100 to 1000 nM; IC50 [2, 7]: 100 to 1000 nM
CCN(c1nc(OC[C@@]23CCCN2C[C@H](F)C3)nc2c(F)c(-c3ccc(F)c4sc(N)c(C#N)c34)c(C(F)(F)F)cc12)[C@H]1C[C@H](C)N(C(C)=O)C1 [Compound 463] |  |  | < 100 | < 100 | < 100 | 
CCC(=O)N1CC[C@@H](N(C)c2nc(OC[C@@]34CCCN3C[C@H](F)C4)nc3c(F)c(-c4ccc(F)c5sc(N)c(C#N)c45)c(C(F)(F)F)cc23)[C@H]1C [Compound 260] |  |  |  |  |  | IC50 [1, 6]: < 100 nM; IC50 [2, 7]: < 100 nM; IC50 (GP2d cells (KRAS G12D); pERK HTRF): < 100 nM
CN(Cc1cccnc1N)c1nc(OC[C@@]23CCCN2C[C@H](F)C3)nc2c(F)c(-c3ccc(F)c4sc(N)c(C#N)c34)c(C(F)(F)F)cc12 [Compound 390] |  |  | 100 to 1000 | 100 to 1000 | < 100 | 
CCN(c1nc(OC[C@@]23CCCN2C[C@H](F)C3)nc2c(F)c(-c3ccc(F)c4sc(N)c(C#N)c34)c(Cl)cc12)[C@@H]1CCN(C(=O)C2CC2)[C@@H]1C [Compound 337] |  |  | 100 to 1000 | 100 to 1000 | < 100 | 
CCN(c1nc(OC[C@@]23CCCN2C[C@H](F)C3)nc2c(F)c(-c3ccc(F)c4sc(N)c(C#N)c34)c(Cl)cc12)[C@@H]1CCN(C(C)=O)[C@@H]1C [Compound 323] |  |  | 100 to 1000 | 100 to 1000 | < 100 | 

The next lines start with results.

IC50 [1, 4] [nM] | IC50 [2, 5] [nM] | IC50 ([1]; KRAS G12D-GppNHp/RAF1 RBD HTRF) [nM] | IC50 ([2]; KRAS G12R-GppNHp/RAF1 RBD HTRF) [nM] | IC50 (GP2d cells (KRAS G12D); GP2d, pERK HTRF) [nM] | Compound | also measured
< 100 | 100 to 1000 |  |  |  | C[C@H]1Cn2nc(C(=O)N(C)C)cc2CN1c1nc(OC[C@@]23CCCN2C[C@H](F)C3)nc2c(F)c(-c3ccc(F)c4sc(N)c(C#N)c34)c(C(F)(F)F)cc12 (atropisomer, axis not shown) [Compound 610] | IC50 (GP2d cells (KRAS G12D); GP2d): < 100 nM; IC50 (GP2d cells (KRAS G12D); GP2d, pERK HTRF, class symbols): < 100 nM; IC50 [3]: 1000 to 10000 nM
< 100 | < 100 |  |  |  | CCN(c1nc(OC[C@@]23CCCN2C[C@H](F)C3)nc2c(F)c(-c3ccc(F)c4sc(N)c(C#N)c34)c(C(F)(F)F)cc12)[C@H]1CCN(C(=O)[C@@H]2C[C@@H]2C)C1 (atropisomer, axis not shown) [Compound 689] | IC50 (GP2d cells (KRAS G12D); GP2d): < 100 nM; IC50 (GP2d cells (KRAS G12D); GP2d, pERK HTRF, class symbols): < 100 nM; IC50 [3]: 100 to 1000 nM
< 100 | < 100 |  |  |  | CCN(c1nc(OC[C@@]23CCCN2C[C@H](F)C3)nc2c(F)c(-c3ccc(F)c4sc(N)c(C#N)c34)c(C(F)(F)F)cc12)[C@H]1C[C@H](C)N(C(=O)[C@@H]2CC2(F)F)C1 (atropisomer, axis not shown) [Compound 751] | IC50 (GP2d cells (KRAS G12D); GP2d, pERK HTRF, class symbols): < 100 nM
< 100 | < 100 |  |  |  | CCN(c1nc(OCC23CCCN2CC(F)C3)nc2c(F)c(-c3ccc(F)c4sc(N)c(C#N)c34)c(C(F)(F)F)cc12)C1CC(C)N(C(=O)N2CC(F)C2)C1 (stereo not drawn) [Compound 759] | IC50 (GP2d cells (KRAS G12D); pERK HTRF, class symbols): < 100 nM
< 100 | < 100 |  |  |  | CCN(c1nc(OC[C@@]23CCCN2C[C@H](F)C3)nc2c(F)c(-c3ccc(F)c4sc(N)c(C#N)c34)c(C(F)(F)F)cc12)[C@H]1CCN(C(=O)c2ncco2)C1 (atropisomer, axis not shown) [Compound 584] | IC50 (GP2d cells (KRAS G12D); GP2d, pERK HTRF, class symbols): < 100 nM

Reference: patent US20260042764A1, “COMPOSITIONS AND METHODS FOR INHIBITION OF KRAS” (TheRas, Inc., priority 2022, published 2026)
